tested on: not listed separately; experiment: Induction of apoptosis in human MOLP8 cells assessed as increase in caspase 3/7 activation incubated for 2 hrs by luminometric caspase-glo 3/7 assay; assay type: functional, cell-based; conditions: MOLP-8, 2 h

Compared with C[C@@H]1[C@@H](C)C/C=C(\F)[C@H](COc2ccccn2)N2CC[C@H]2CN2C[C@@]3(CCCc4cc(Cl)ccc43)COc3ccc(cc32)C(=O)NS1(=O)=O, COC[C@H]1/C(F)=C/C[C@H](C)[C@@H](C)S(=O)(=O)NC(=O)c2ccc3c(c2)N(C[C@@H]2CCN21)C[C@@]1(CCCc2cc(Cl)ccc21)CO3 is 8.2-fold lower in AC50: 1490 nM for the first, 181 nM for the second.

C[C@@H]1[C@@H](C)C/C=C(\F)[C@H](CN2CCN3CCOC[C@@H]3C2)N2CC[C@H]2CN2C[C@@]3(CCCc4cc(Cl)ccc43)COc3ccc(cc32)C(=O)NS1(=O)=O and C[C@@H]1[C@@H](C)C/C=C(\F)[C@H](CO)N2CC[C@H]2CN2C[C@@]3(CCCc4cc(Cl)ccc43)COc3ccc(cc32)C(=O)NS1(=O)=O are within 1.5-fold of each other in AC50: 120 nM for the first, 144 nM for the second.

Compared with C[C@@H]1[C@@H](C)C/C=C(\F)CN2CC[C@H]2CN2C[C@@]3(CCCc4cc(Cl)ccc43)COc3ccc(cc32)C(=O)NS1(=O)=O, C[C@@H]1[C@@H](C)C/C=C(\F)C(CO)(CO)N2CC[C@H]2CN2C[C@@]3(CCCc4cc(Cl)ccc43)COc3ccc(cc32)C(=O)NS1(=O)=O is 3.5-fold higher in AC50: 692 nM for the first, 2390 nM for the second.

C[C@@H]1[C@@H](C)C/C=C(\F)[C@H](COCCCN2CCOCC2)N2CC[C@H]2CN2C[C@@]3(CCCc4cc(Cl)ccc43)COc3ccc(cc32)C(=O)NS1(=O)=O and COCCCOC[C@H]1/C(F)=C/C[C@H](C)[C@@H](C)S(=O)(=O)NC(=O)c2ccc3c(c2)N(C[C@@H]2CCN21)C[C@@]1(CCCc2cc(Cl)ccc21)CO3 are within 1.5-fold of each other in AC50: 231 nM for the first, 274 nM for the second.

Going from COCCOCC1(COCCOC)/C(F)=C/C[C@H](C)[C@@H](C)S(=O)(=O)NC(=O)c2ccc3c(c2)N(C[C@@H]2CCN21)C[C@@]1(CCCc2cc(Cl)ccc21)CO3 to C[C@@H]1[C@@H](C)C/C=C(\F)[C@H](COCC(=O)O)N2CC[C@H]2CN2C[C@@]3(CCCc4cc(Cl)ccc43)COc3ccc(cc32)C(=O)NS1(=O)=O, the AC50 rises from 152 nM to 5990 nM (39-fold).

biological target: Induced myeloid leukemia cell differentiation protein Mcl-1 (Homo sapiens, UniProt Q07820); experiment: Inhibition of Terbium-labeled BIM BH3 peptide binding to MCL1 (unknown origin) incubated for 60 mins by HTRF assay; conditions: not given
Sequence (Q07820 whole entry): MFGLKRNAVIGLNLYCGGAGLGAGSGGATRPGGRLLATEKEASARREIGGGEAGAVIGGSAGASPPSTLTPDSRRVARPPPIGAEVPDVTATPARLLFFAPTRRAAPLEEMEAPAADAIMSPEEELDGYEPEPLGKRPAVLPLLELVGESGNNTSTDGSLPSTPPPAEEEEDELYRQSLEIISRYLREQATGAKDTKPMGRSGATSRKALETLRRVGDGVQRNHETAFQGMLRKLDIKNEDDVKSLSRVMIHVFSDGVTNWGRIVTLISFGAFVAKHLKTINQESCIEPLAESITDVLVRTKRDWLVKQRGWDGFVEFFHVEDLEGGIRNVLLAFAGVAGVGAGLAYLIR

Going from C[C@@H]1[C@@H](C)C/C=C(\F)CN2CC[C@H]2CN2C[C@@]3(CCCc4cc(Cl)ccc43)COc3ccc(cc32)C(=O)NS1(=O)=O to COCCOCC1(COCCOC)/C(F)=C/C[C@H](C)[C@@H](C)S(=O)(=O)NC(=O)c2ccc3c(c2)N(C[C@@H]2CCN21)C[C@@]1(CCCc2cc(Cl)ccc21)CO3, the Ki falls from 0.84 nM to 0.25 nM (3.4-fold). The second binds more tightly here.

Reference: ChEMBL document CHEMBL4680368, “Myeloid Cell Leukemia-1 Inhibitors as Emerging Cancer Treatment” (ACS Med Chem Lett, 2021)
